Experimental data as given in US9868697B2, “Phytosphingosine derivatives, and composition comprising same for preventing and treating inflammatory skin diseases, autoimmune diseases, and hyperkeratosis diseases” (THE CATHOLIC UNIVERSITY OF KOREA INDUSTRY—ACADEMIC …, priority 2011, dated 2018).
“Also recorded” adds a separate entry of the source.

Key:
NF-κB [1] = assay: Phosphorylation of IκBα and NF-κB in TPA-stimulated skin keratinocytes, western blot; format: cell-based, human; conditions: for inhibitory effect on the NF-κB activation: overall conclusion of the NF-κB tests
Protocol: (§1) Herein, in order to verify the effect of novel synthetic YG-II-6 compounds and their lead compound, phytosphingosine, on phosphorylation and degradation of IκBα, which is a protein that inhibits the activity of NF-κB by forming a complex with NF-κB, skin keratinocytes were pre-treated with respective compounds for 1 hour and then stimulated with 400 nM TPA for 15 minutes and 30 minutes, respectively. In order to verify the phosphorylation of NF-κB and the expression level of NF-κB in the cytoplasm and nucleus, skin keratinocytes were stimulated for 15 minutes and 1 hour, respectively. The results were confirmed by western blot analysis. In addition, the nuclear translocation of NF-κB was confirmed through reaction with antibodies, fluorescent labeling, and direct observation by microscopy. In order to verify the activity of the respective compounds at the transcription stage, cells were transfected with plasmids labeled with NF-κB luciferase reporter, and the luciferase activity was measured by the luciferase assay. In addition, the phosphorylation of IκBα and NF-κB was measured in the PTA-stimulated mouse skin.

NF-κB [2] = assay: Nuclear translocation of NF-κB, immunostaining, TPA-stimulated skin keratinocytes; format: cell-based, human; conditions: TPA stimulation, FIG. 1B
Protocol: as §1

NF-κB [3] = assay: NF-κB luciferase reporter assay, TPA stimulation; format: cell-based, human; conditions: FIG. 1C
Protocol: as §1

ERK1/2, p38, and JNK = assay: MAP kinase phosphorylation in TPA-stimulated skin keratinocytes, western blot; format: cell-based, human; conditions: 400 nM TPA for 15 minutes, FIG. 4
Protocol: In order to verify the effects of the respective compounds on MAP kinase, skin keratinocytes were treated with the respective compounds for 1 hour, and then stimulated with 400 nM TPA for 15 minutes. The level of phosphorylation was confirmed by western blot assay.

[4] = test system: human-derived keratinocytes; assay: Cytotoxicity on human-derived keratinocytes, WST-1 reagent; format: cell-based; conditions: WST-1, FIG. 7A
Protocol: (§2) Therefore, in order to verify the degree of the cytotoxicity of the YG-II-6 compounds, their cytotoxicity on human-derived keratinocytes was confirmed by using the WST-1 reagent. In order to verify the effects of the compounds on the expression of proteins associated with apoptosis, the keratinocytes were treated with corresponding concentrations of the respective compound samples and stimulated with TPA for 24 hours, and the expression levels of proteins were confirmed by western blot assay. In addition, human-derived keratinocytes and primary culture skin keratinocytes were treated with the compounds, and after 24 hours, subjected to FITC staining and TUNEL assay, and the skin tissues isolated from TPA-induced mice was subjected to FITC staining

[5] = test system: human-derived keratinocytes and primary culture skin keratinocytes; assay: Apoptosis in keratinocytes, FITC staining and TUNEL assay; format: cell-based; conditions: 24 hours, FIGS. 7C to 7E
Protocol: as §2

mouse skin tissues = assay: Apoptosis in skin tissues of TPA-induced mice, FITC staining; format: in vivo; conditions: FIGS. 7C to 7E
Protocol: as §2

| NF-κB luciferase activity increased by TPA stimulation (NF-κB [3]) | Compound | inhibitory effect on the NF-κB activation (NF-κB [1]) | phosphorylation of IκBα and NF-κB increased by TPA stimulation (NF-κB [1]; skin keratinocytes, 1 hour pre-treatment, 400 nM TPA, FIG. 1A) | nuclear translocation of NF-κB (NF-κB [2]) | phosphorylation of ERK1/2, p38, and JNK (ERK1/2, p38, and JNK) | concentration at which cytotoxicity was shown [4] [µM] | apoptosis in the TPA-stimulated cells [5] | apoptosis in the mouse skin tissues (mouse skin tissues) |
| --- | --- | --- | --- | --- | --- | --- | --- | --- |
| – | CCCCCCCCCCCCCC[C@@H](O)[C@@H](O)[C@H](CO)NC(=O)/C=C/C(=O)O [fYG-II-6, (E)-4-oxo-4-(((2S,3S,4R)-1,3,4-trihydroxyoctadecan-2-yl)amino)but-2-enoic acid] | relatively greater inhibitory effect than mYG-II-6 | – | – | – | – | – | – |
| inhibited the luciferase activity | CCCCCCCCCCCCCC[C@@H](O)[C@@H](O)[C@@H](N)CO [phytosphingosine] | inhibited the activation of NF-κB | inhibited the phosphorylation of IκBα and NF-κB | inhibited the nuclear translocation of NF-κB | relatively weaker inhibitory activity than the YG-II-6 compounds; also recorded: no or little inhibitory effect | 5 to 10 | induced apoptosis | induced apoptosis |
